Here are results for 22 compounds from BindingDB's records for doi:10.1016/0960-894X(95)00537-3 (1995).

The structures appear in SMILES notation. Where only a bound is given, the exact number is not on record here.

This assay addresses Gastrin/cholecystokinin type B receptor (Cavia porcellus). Briefly: Inhibitory activity towards binding of [125I]Bolton-Hunter-CCK-8 to CCKB receptor in guinea pig cortical tissue.

As a reminder, the IC50 is the concentration that inhibits the measured activity by half. Lower therefore signals inhibition by little substance. Take `Cc1cccc(NC(=O)N[C@H](CCC(=O)OCc2ccccc2)C(=O)N2CCN(C(=O)c3ccccc3)CC2)c1`: the half-maximal inhibitory concentration (IC50) was over 10000 nM.

`Cc1cccc(NC(=O)N[C@H](CCc2ccccc2)C(=O)N2CCC(C(=O)c3ccccc3)CC2)c1` [1-[(R)-1-(4-Benzoyl-piperidine-1-carbonyl)-3-phenyl-propyl]-3-m-tolyl-urea]: the IC50 came out at 3900 nM.

The compound `CCCC[C@@H](NC(=O)Nc1cccc(C)c1)C(=O)N1CCC(C(=O)c2ccccc2)CC1` [1-[(R)-1-(4-Benzoyl-piperidine-1-carbonyl)-pentyl]-3-m-tolyl-urea] had an IC50 of 4800 nM.

Consider `Cc1cccc(NC(=O)N[C@H](COCc2ccccc2)C(=O)N2CCC(Cc3ccccc3)CC2)c1` [1-[(R)-1-Benzyloxymethyl-2-(4-benzyl-piperidin-1-yl)-2-oxo-ethyl]-3-m-tolyl-urea], for which the concentration for half-maximal inhibition (IC50) is over 5900 nM.

With `CC(=O)C1CCN(C(=O)[C@@H](COCc2ccccc2)NC(=O)Nc2cccc(C)c2)CC1` [1-[(R)-2-(4-Acetyl-piperidin-1-yl)-1-benzyloxymethyl-2-oxo-ethyl]-3-m-tolyl-urea], the IC50 is over 6900 nM.

The compound `Cc1cccc(NC(=O)N[C@H](COCc2ccccc2)C(=O)N2CCC(C(=O)c3ccccc3)CC2)c1` [1-[(R)-2-(4-Benzoyl-piperidin-1-yl)-1-benzyloxymethyl-2-oxo-ethyl]-3-m-tolyl-urea] yielded an IC50 of 300 nM.

`Cc1cccc(NC(=O)N[C@H](COCc2ccccc2)C(=O)N2CCC(C(=O)Nc3ccccc3)CC2)c1` [1-[(R)-3-Benzyloxy-2-(3-m-tolyl-ureido)-propionyl]-piperidine-4-carboxylic acid phenylamide] had an IC50 of 160 nM.

The compound `Cc1cccc(NC(=O)N[C@H](CS(=O)(=O)Cc2ccccc2)C(=O)N2CCC(C(=O)c3ccccc3)CC2)c1` [1-[(S)-2-(4-Benzoyl-piperidin-1-yl)-2-oxo-1-phenylmethanesulfonylmethyl-ethyl]-3-m-tolyl-urea] showed an IC50 of 810 nM.

In the case of `Cc1cccc(NC(=O)N[C@H](COCc2ccccc2)C(=O)N2CCC(C(=O)c3ccc(F)cc3)CC2)c1` [1-{1-((R)-Benzyloxymethyl)-2-[4-(4-fluoro-benzoyl)-piperidin-1-yl]-2-oxo-ethyl}-3-m-tolyl-urea], the 50% inhibitory concentration (IC50) is 230 nM.

With `Cc1cccc(NC(=O)N[C@H](CCCc2ccccc2)C(=O)N2CCC(C(=O)c3ccccc3)CC2)c1` [1-{1-[(R)-(4-Benzoyl-piperidin-1-yl)-oxo-methyl]-4-phenyl-butyl}-3-m-tolyl-urea], the IC50 stood at 1100 nM.

In the case of `Cc1cccc(NC(=O)N[C@@H](C(=O)N2CCC(C(=O)c3ccccc3)CC2)[C@@H](C)OCc2ccccc2)c1` [1-{(R)-1-[(R)-(4-Benzoyl-piperidin-1-yl)-oxo-methyl]-2-benzyloxy-propyl}-3-m-tolyl-urea], the concentration for half-maximal inhibition (IC50) was determined as 440 nM.

Turning to `Cc1cccc(NC(=O)N[C@H](CCC(=O)OCc2ccccc2)C(=O)N2CCC(NC(=O)c3ccccc3)CC2)c1` [5-(4-Benzoylamino-piperidin-1-yl)-5-(R)-oxo-4-(3-m-tolyl-ureido)-pentanoic acid benzyl ester], the IC50 was over 10000 nM.

With `Cc1cccc(NC(=O)N[C@H](CCC(=O)OCc2ccccc2)C(=O)N2CCC(C(=O)Nc3ccccc3)CC2)c1` [5-(R)-Oxo-5-(4-phenylcarbamoyl-piperidin-1-yl)-4-(3-m-tolyl-ureido)-pentanoic acid benzyl ester], the IC50 turned out to be 2000 nM.

For `Cc1cccc(NC(=O)N[C@H](COC(=O)N(C)C)C(=O)N2CCC(C(=O)c3ccccc3)CC2)c1` [Dimethyl-carbamic acid (R)-3-(4-benzoyl-piperidin-1-yl)-3-oxo-2-(3-m-tolyl-ureido)-propyl ester], the half-maximal inhibitory concentration (IC50) came to 1500 nM.

The compound `Cc1cccc(NC(=O)N[C@H](COC(=O)N2CCOCC2)C(=O)N2CCC(C(=O)c3ccccc3)CC2)c1` [Morpholine-4-carboxylic acid (R)-3-(4-benzoyl-piperidin-1-yl)-3-oxo-2-(3-m-tolyl-ureido)-propyl ester] had an IC50 of 180 nM.

The compound `Cc1cccc(NC(=O)N[C@H](COC(=O)Nc2ccccc2)C(=O)N2CCC(C(=O)c3ccccc3)CC2)c1` [Phenyl-carbamic acid (R)-3-(4-benzoyl-piperidin-1-yl)-3-oxo-2-(3-m-tolyl-ureido)-propyl ester] registered an IC50 of 120 nM.

Compound `Cc1cccc(NC(=O)N[C@H](COC(=O)N2CCCC2)C(=O)N2CCC(C(=O)c3ccccc3)CC2)c1` [Pyrrolidine-1-carboxylic acid (R)-3-(4-benzoyl-piperidin-1-yl)-3-oxo-2-(3-m-tolyl-ureido)-propyl ester] yielded an IC50 of 100 nM.

The compound `Cc1cccc(NC(=O)N[C@H](COC(=O)N2CCCC2)C(=O)N2CCC(C(=O)Nc3ccccc3)CC2)c1` [Pyrrolidine-1-carboxylic acid (R)-3-oxo-3-(4-phenylcarbamoyl-piperidin-1-yl)-2-(3-m-tolyl-ureido)-propyl ester] displayed an IC50 of 34 nM.

For `CC(Cc1c[nH]c2ccccc12)(NC(=O)OC1[C@H]2C[C@@H]3C[C@@H](C[C@H]1C3)C2)C(=O)N1CCC(C(=O)c2ccccc2)CC1` (some centres not stated) [[2-(4-Benzoyl-piperidin-1-yl)-1-(1H-indol-3-ylmethyl)-1-methyl-2-oxo-ethyl]-carbamic acid adamantan-2-yl ester], the IC50 was found to be 3400 nM.

Turning to `CC(C)C[C@H](NC(=O)[C@H](Cc1c[nH]c2ccccc12)NC(=O)OC(C)(C)C)C(=O)N1CCC(C(=O)c2ccccc2)CC1` [[(S)-1-[(S)-1-(4-Benzoyl-piperidine-1-carbonyl)-3-methyl-butylcarbamoyl]-2-(1H-indol-3-yl)-ethyl]-carbamic acid tert-butyl ester], the IC50 worked out at 912 nM.

As for `CC(C)C[C@H](NC(=O)[C@H](Cc1c[nH]c2ccccc12)NC(=O)OC(C)(C)C)C(=O)N1CCC(Cc2ccccc2)CC1` [[(S)-1-[(S)-1-(4-Benzyl-piperidine-1-carbonyl)-3-methyl-butylcarbamoyl]-2-(1H-indol-3-yl)-ethyl]-carbamic acid tert-butyl ester], the IC50 was over 10000 nM.

In turn, `CC(C)(C)OC(=O)N[C@@H](Cc1c[nH]c2ccccc12)C(=O)N1CCC(C(=O)c2ccccc2)CC1` [[(S)-2-(4-Benzoyl-piperidin-1-yl)-1-(1H-indol-3-ylmethyl)-2-oxo-ethyl]-carbamic acid tert-butyl ester] yielded an IC50 of over 10000 nM.
